Test results as given in patent US9861640B2, “Medicament for treatment of Alzheimer's disease” (KEMPHYS LTD., priority 2013, dated 2018).

Assays:
IL-4 = IL-4 sandwich ELISA of hippocampus, correlation with MWM; type: in vivo, mouse; settings: APP23 mice; day 18; P=0.096 (HX630), P=0.087 (Am80/HX630)
APP23 mice [1] = test: Morris water maze (MWM) test; type: in vivo, mouse; settings: 8.5-month-old male APP23 mice; for acquisition of spatial learning (escape latency) in the MWM test: oral Am80 0.5 mg/kg and/or HX630 5 mg/kg for 17 days, vs vehicle-treated APP23 mice
Procedure: Hemizygous APP23 mice, which overexpress human-type AβPP carrying the double mutation K670N/M671L, were produced and bred as previously described. Only male mice were analyzed. Wistar rats were obtained from Kyudo Co., Ltd. (Kumamoto, Japan). Animals were housed in standard mouse cages under standard laboratory conditions: food and water available ad libitum, constant room temperature and humidity, and a 12 h light/12 h dark cycle (light on from 08:00 to 20:00). These animal experiments were conducted according to the guidelines of the Ministry of Education, Culture, Sports, Science, and Technology of Japan, and were approved by the Institutional Animal Care and Use Committee of Kumamoto University (#B25-133).
(§1) APP23 mice begin forming amyloid deposits when they are 6 months old, but memory deficits in the MWM test appear quite early (before 3 months of age). Here, we used 8.5-month-old male APP23 mice and their WT littermates (C57BL/6J). We used stratified random sampling to divide mice (four to six per cage) into four groups to equalize the mean body weight of the study groups: mice given 0.5 mg/kg/d Am80, those given 5 mg/kg/d HX630, those given the mixture of 0.5 mg/kg/d Am80 and 5 mg/kg/d HX630, and those given the vehicle. Am80 and HX630 were suspended in 0.5% (w/v) carboxymethylcellulose solution and were orally administered to mice at 0.5 mg/kg (Am80) or 5 mg/kg (HX630) for 17 consecutive days (once daily at 18:00). Control animals received the same volume of 0.5% (w/v) carboxymethylcellulose solution orally, without the other compounds. […]
The MWM test was performed as described previously. […] During both acquisition and probe trials, the routes of the mice were recorded by means of a computerized video tracking system (CompACT VAS; Muromachi Kikai Co. Ltd., Tokyo, Japan). Training trials measured the time it took for a mouse to find the escape platform. Probe trials determined the percent time spent in each quadrant of the maze. […]

full-length (fl)-APP = test: Immunoblot of full-length APP in brains of APP23 mice; type: in vivo, mouse; settings: 8.5-month-old male APP23 mice; Am80 0.5 and/or HX630 5 mg/kg/d; day 18
Procedure: as §1, with “compounds. We set the 0.5 mg/kg/d dose for Am80 on the basis that this had been found effective in other in vivo studies, such as those by Kawahara et al. and Ishido and Shudo [37]. Higher doses of Am80 (3 mg/kg/d and 6 mg/kg/d) were also orally administered to mice for 17 consecutive days. Animals were weighed once a week. Mice were subjected to behavioral testing on days 15-18 of the first oral administration of the compounds (at 19:00-23:00). On days 15-17 (not day 18), animals received the compounds at 24:00, after behavioral testing.” for “compounds.”

CD36 = test: Immunoblot of CD36 in brains of APP23 mice; type: in vivo, mouse; settings: Am80 0.5 and/or HX630 5 mg/kg/d, day 18, whole-cell extracts
Procedure: as §1, with “compounds. We set the 0.5 mg/kg/d dose for Am80 on the basis that this had been found effective in other in vivo studies, such as those by Kawahara et al. and Ishido and Shudo [37]. Higher doses of Am80 (3 mg/kg/d and 6 mg/kg/d) were also orally administered to mice for 17 consecutive days. Animals were weighed once a week. Mice were subjected to behavioral testing on days 15-18 of the first oral administration of the compounds (at 19:00-23:00). On days 15-17 (not day 18), animals received the compounds at 24:00, after behavioral testing.” for “compounds.”

NEP = test: Immunoblot of NEP in brains of APP23 mice; type: in vivo, mouse; settings: Am80 0.5 and/or HX630 5 mg/kg/d, day 18, vs vehicle-treated mice
Procedure: as §1, with “compounds. We set the 0.5 mg/kg/d dose for Am80 on the basis that this had been found effective in other in vivo studies, such as those by Kawahara et al. and Ishido and Shudo [37]. Higher doses of Am80 (3 mg/kg/d and 6 mg/kg/d) were also orally administered to mice for 17 consecutive days. Animals were weighed once a week. Mice were subjected to behavioral testing on days 15-18 of the first oral administration of the compounds (at 19:00-23:00). On days 15-17 (not day 18), animals received the compounds at 24:00, after behavioral testing.” for “compounds.”

APP23 mice [2] = settings: earlier study [15]; oral Am80 0.5 mg/kg/d for 14 weeks; 5-month-old APP23 mice; cited from earlier work
RXRs = settings: cited from earlier work

SMILES	hippocampal IL-4 levels (IL-4)	acquisition of spatial learning (escape latency) in the MWM test (APP23 mice [1])	total amount of full-length (fl)-APP in brain (full-length (fl)-APP)	CD36 protein level in brain (immunoblot) (CD36)	NEP protein level in brain (immunoblot) (NEP)	behavioral benefits (APP23 mice [2])	binding affinity for RXRs (and RARγ) (RXRs)	memory deficits in APP23 mice (MWM) (APP23 mice [1]; oral Am80 0.5 mg/kg and/or HX630 5 mg/kg, 17 days)
CN1c2ccccc2N=C(c2ccc(C(=O)O)cc2)c2cc3c(cc21)C(C)(C)CCC3(C)C [HX630, 4-[5H-2,3-(2,5dimethyl-2,5-hexano)-5-methyldibenzo[b,e]-diazepin-11-yl]benzoic acid]	the increase was statistically insignificant	No significant difference	had no effect	increased	Higher levels			
CC1(C)CCC(C)(C)c2cc(NC(=O)c3ccc(C(=O)O)cc3)ccc21 [Am80, 4-{(5,6,7,8-tetrahydro-5,5,8,8-tetramethyl-2-naphthalenyl)carbamoyl}benzoic acid]		No significant difference	had no effect		Higher levels	did not detect behavioral benefits	little or no binding affinity	did not ameliorate memory deficits
